Laboratory results reported in paper PMC3486884 (PLoS Pathogens, 2012).
Where two headings read alike, the source gives them in different places.

Tests used:
HRV14 [1] = conditions: HRV14, normalized to DMSO control (1), n=2, Figure S7A
HRV2 [2] = conditions: HRV2, normalized to DMSO control (1), n=2, Figure S7A
CVB4 [3] = conditions: CVB4, normalized to DMSO control (1), n=2, Figure S7A
HRV1A [4] = test: microbe, parasite or virus in culture; conditions: Human rhinovirus sp.
CVA21 [5] = conditions: CVA21, normalized to DMSO control (1), n=2, Figure S7A
CVA21 [6] = test: microbe, parasite or virus in culture; conditions: Coxsackievirus, CVA21, HeLa, read-out: IC50 (CVA21)
HRV1A [7] = conditions: n=2
HRV2 [8] = test: microbe, parasite or virus in culture; conditions: Human rhinovirus sp., HRV2, HeLa, read-out: IC50 (HRV2)
CVB4 [9] = test: microbe, parasite or virus in culture; conditions: Enterovirus B, CVB4, HeLa, read-out: IC50 (CVB4)
CVB3 = conditions: n=2
[10] = system: influenza virus (strain A/Puerto Rico/8/34/H1N1 depicted PR8); test: microbe, parasite or virus in culture; conditions: unidentified influenza virus, A549, read-out: IC50 (PR8)
HRV14 [11] = test: microbe, parasite or virus in culture; conditions: Human rhinovirus sp., HRV14, HeLa, read-out: IC50 (HRV14)
HRV16 [12] = test: microbe, parasite or virus in culture; conditions: Human rhinovirus sp., HRV16, HeLa, read-out: IC50 (HRV16)
HRV16 [13] = conditions: HRV16, normalized to DMSO control (1), n=2, Figure S7A
[14] = nitazoxanide; cited from earlier work

## O=C(Nc1ccc([N+](=O)[O-])cc1Cl)c1ccccc1O [TVB-1332]
HRV14 [1]; 0.1 µM
  relative infection: 0.91
HRV14 [1]; 0.3 µM
  relative infection: 0.96
HRV14 [1]; 0.9 µM
  relative infection: 0.82
HRV14 [1]; 2.8 µM
  relative infection: 0.47
HRV14 [1]; 8.3 µM
  relative infection: 0.09
HRV14 [1]; 25.0 µM
  relative infection: 0.05
HRV2 [2]; 0.1 µM
  relative infection: 0.94
HRV2 [2]; 0.3 µM
  relative infection: 0.97
HRV2 [2]; 0.9 µM
  relative infection: 0.95
HRV2 [2]; 2.8 µM
  relative infection: 0.38
HRV2 [2]; 8.3 µM
  relative infection: 0.01
HRV2 [2]; 25.0 µM
  relative infection: 0.01
CVB4 [3]; 0.1 µM
  relative infection: 1.10
CVB4 [3]; 0.3 µM
  relative infection: 1.16
CVB4 [3]; 0.9 µM
  relative infection: 1.25
CVB4 [3]; 2.8 µM
  relative infection: 0.86
CVB4 [3]; 8.3 µM
  relative infection: 0.34
CVB4 [3]; 25.0 µM
  relative infection: 0.33
HRV1A [4]; HeLa, read-out: IC50 (HRV1A)
  IC50: 3.19 µM
HRV1A [4]; M-HeLa, 7 h, read-out: HRV1A infection (dsRNA), 0.03 µM
  activity at 0.03 µM: 108%
HRV1A [4]; M-HeLa, 7 h, read-out: HRV1A infection (dsRNA), 0.10 µM
  activity at 0.1 µM: 98%
HRV1A [4]; M-HeLa, 7 h, read-out: HRV1A infection (dsRNA), 0.31 µM
  activity at 0.31 µM: 96%
HRV1A [4]; M-HeLa, 7 h, read-out: HRV1A infection (dsRNA), 0.93 µM
  activity at 0.93 µM: 88%
HRV1A [4]; M-HeLa, 7 h, read-out: HRV1A infection (dsRNA), 2.78 µM
  activity at 2.78 µM: 44%
HRV1A [4]; M-HeLa, 7 h, read-out: HRV1A infection (dsRNA), 8.33 µM
  activity at 8.33 µM: 5%
HRV1A [4]; M-HeLa, 7 h, read-out: HRV1A infection (dsRNA), 25.00 µM
  activity at 25 µM: 4%
CVA21 [5]; 0.1 µM
  relative infection: 0.91
CVA21 [5]; 0.3 µM
  relative infection: 0.95
CVA21 [5]; 0.9 µM
  relative infection: 0.93
CVA21 [5]; 2.8 µM
  relative infection: 1.02
CVA21 [5]; 8.3 µM
  relative infection: 0.81
CVA21 [5]; 25.0 µM
  relative infection: 0.20
CVA21 [6]
  IC50: 14.7 µM
HRV1A [7]; 0.1 µM
  relative infection: 0.99
HRV1A [7]; 0.3 µM
  relative infection: 1.01
HRV1A [7]; 0.9 µM
  relative infection: 0.97
HRV1A [7]; 2.8 µM
  relative infection: 0.61
HRV1A [7]; 8.3 µM
  relative infection: 0.04
HRV1A [7]; 25.0 µM
  relative infection: 0.02
HRV2 [8]
  IC50: 2.36 µM
CVB4 [9]
  IC50: 8.01 µM
CVB3; 0.1 µM
  relative infection: 1.01
CVB3; 2.8 µM
  relative infection: 1.08
CVB3; CVB3, 0.3 µM, normalized to DMSO control (1), Figure S7A
  relative infection: 1.11
CVB3; CVB3, 0.9 µM, normalized to DMSO control (1), Figure S7A
  relative infection: 1.07
CVB3; CVB3, 8.3 µM, normalized to DMSO control (1), Figure S7A
  relative infection: 1.05
CVB3; CVB3, 25.0 µM, normalized to DMSO control (1), Figure S7A
  relative infection: 1.15
[10]
  IC50: ~2.7 µM
HRV14 [11]
  IC50: 2.47 µM
HRV16 [12]
  IC50: 3.74 µM
HRV16 [13]; 0.1 µM
  relative infection: 0.98
HRV16 [13]; 0.3 µM
  relative infection: 0.95
HRV16 [13]; 0.9 µM
  relative infection: 0.94
HRV16 [13]; 2.8 µM
  relative infection: 0.66
HRV16 [13]; 8.3 µM
  relative infection: 0.14
HRV16 [13]; 25.0 µM
  relative infection: 0.07

## CC(=O)Oc1ccccc1C(=O)Nc1ncc([N+](=O)[O-])s1 [Nitazoxanide, nitazoxanide]
[14]
  pKa: 5.8
